Like-named read-outs stand apart in the source and are kept apart here. *1 amine or outer side, *2 acyl side, *3 side chain or, on linkers, in order; H or OH if unused. Where a SMILES comes first, the peptide text is derived from it. Side-chain parts run from the residue outwards. [ ]: non-standard residue; d: D form. The star is where a group is joined. αMePhe(2-F) = C[C@](N)(Cc1ccccc1F)C(=O)O; γGlu = O=C(O)[C@H](CCC(=O)[*:2])N[*:1]; C14 diacid = O=C(O)CCCCCCCCCCCCC(=O)*; αMeY = C[C@](N)(Cc1ccc(O)cc1)C(=O)O; 4Pal = N[C@@H](Cc1ccncc1)C(=O)O; αMeL = CC(C)C[C@](C)(N)C(=O)O; Orn = NCCC[C@H](N)C(=O)O; AEEA = NCCOCCOCC(=O)O; Aib = CC(C)(N)C(=O)O
Columns and labels:
Format in all cases: cell-based
hGIPR = target: T1, hGIPR (Homo sapiens, UniProt P48546); assay: Functional cAMP formation (HTRF) in HEK-293 clonal cells expressing hGIPR, 0.1% bovine casein, without or with 1.0% human serum albumin; settings: 37° C.; for Emax: HEK293, cAMP, percent of maximal response to GIP(1-42)NH2, read-out: hGIPR Emax, % ± SEM; for EC50: cAMP, 0.1% bovine casein (no human serum albumin), geometric mean, read-out: hGIPR EC50, nM (SEM, n)
T1 construct: expressed in transfected cells
T1 sequence (P48546 22-466): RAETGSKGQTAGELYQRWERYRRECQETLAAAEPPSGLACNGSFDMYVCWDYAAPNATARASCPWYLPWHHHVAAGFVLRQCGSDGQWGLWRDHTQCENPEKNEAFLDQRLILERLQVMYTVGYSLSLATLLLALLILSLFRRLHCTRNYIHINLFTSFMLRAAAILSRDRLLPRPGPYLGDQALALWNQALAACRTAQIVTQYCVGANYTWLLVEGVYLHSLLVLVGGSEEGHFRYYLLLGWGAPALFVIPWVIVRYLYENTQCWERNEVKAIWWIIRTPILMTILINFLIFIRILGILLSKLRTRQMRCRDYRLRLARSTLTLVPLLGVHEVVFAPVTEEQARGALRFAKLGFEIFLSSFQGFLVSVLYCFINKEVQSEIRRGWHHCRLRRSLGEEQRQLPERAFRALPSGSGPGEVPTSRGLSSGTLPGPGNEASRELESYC
Method in brief: (§1)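 Cells were stimulated with peptide for 30 min at 37° C, then intracellular cAMP was measured by competitive HTRF (665/620 nm ratio) and converted to nM using a cAMP standard curve. Relative EC50 and Emax came from four-parameter logistic fits of percent maximal response against peptide concentration.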

hGCGR = target: T2, hGCGR (Homo sapiens, UniProt P47871); assay: Functional cAMP formation (HTRF) in HEK-293 clonal cells expressing hGCGR, 0.1% bovine casein, without or with 1.0% human serum albumin; settings: cAMP, 37° C., read-out: hGCGR EC50, nM (SEM, n)
T2 construct: expressed in transfected cells
Method in brief: as §1

hGLP-1R = hGLP-1R (Homo sapiens, UniProt P43220); assay: Functional cAMP formation (HTRF) in HEK-293 clonal cells expressing hGLP-1R, 0.1% bovine casein, without or with 1.0% human serum albumin; design: expressed in transfected cells; settings: 37° C.; for Emax: HEK293, cAMP, percent of maximal response to GLP-1(7-36)NH2, read-out: hGLP-1R Emax, % ± SEM; for EC50: cAMP, read-out: hGLP-1R EC50, nM (SEM, n)
Method in brief: as §1

[1] = 0.1% bovine casein and 1.0% human serum albumin
[2] = 0.1% bovine casein, arithmetic mean
[3] = 0.1% bovine casein (no human serum albumin), geometric mean
[4] = 0.1% bovine casein and 1.0% human serum albumin, geometric mean (SEM, n)

Sequence of hGLP-1R (P43220 24-463): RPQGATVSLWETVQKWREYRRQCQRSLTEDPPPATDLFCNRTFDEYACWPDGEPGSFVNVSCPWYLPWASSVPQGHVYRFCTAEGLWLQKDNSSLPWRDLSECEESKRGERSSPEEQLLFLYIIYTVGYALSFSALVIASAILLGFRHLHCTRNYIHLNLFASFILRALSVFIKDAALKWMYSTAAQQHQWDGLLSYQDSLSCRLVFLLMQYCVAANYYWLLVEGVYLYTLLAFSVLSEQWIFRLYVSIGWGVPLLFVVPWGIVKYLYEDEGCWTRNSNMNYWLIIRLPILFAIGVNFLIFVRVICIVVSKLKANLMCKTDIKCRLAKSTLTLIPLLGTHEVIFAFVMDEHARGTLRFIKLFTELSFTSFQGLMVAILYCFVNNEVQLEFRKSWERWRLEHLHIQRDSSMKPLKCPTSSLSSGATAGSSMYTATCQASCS
T2 sequence (P47871 26-477): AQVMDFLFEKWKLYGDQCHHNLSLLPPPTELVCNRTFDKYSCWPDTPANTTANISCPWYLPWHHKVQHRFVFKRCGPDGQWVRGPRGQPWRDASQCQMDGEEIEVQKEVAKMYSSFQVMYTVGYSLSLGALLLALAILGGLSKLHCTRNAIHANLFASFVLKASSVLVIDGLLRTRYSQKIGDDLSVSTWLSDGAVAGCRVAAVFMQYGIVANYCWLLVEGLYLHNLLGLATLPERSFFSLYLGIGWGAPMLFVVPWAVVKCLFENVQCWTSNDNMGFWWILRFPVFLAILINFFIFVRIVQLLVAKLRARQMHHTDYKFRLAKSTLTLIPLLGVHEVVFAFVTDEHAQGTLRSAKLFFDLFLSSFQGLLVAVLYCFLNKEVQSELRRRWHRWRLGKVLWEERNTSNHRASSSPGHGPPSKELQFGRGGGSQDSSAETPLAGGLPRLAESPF

Compound | Emax (hGIPR; [1]) [%] | Emax (hGIPR; [2]) [%] | EC50 (hGIPR) [nM] | EC50 (hGCGR; [3]) [nM] | EC50 (hGCGR; [4]) [nM] | Emax (hGLP-1R; [1]) [%] | EC50 (hGLP-1R; [3]) [nM] | EC50 (hGLP-1R; [4]) [nM] | Emax (hGLP-1R; [2]) [%]
CC[C@H](C)[C@H](NC(=O)[C@H](CCCN)NC(=O)[C@H](CC(=O)O)NC(=O)[C@H](CC(C)C)NC(=O)[C@](C)(CC(C)C)NC(=O)[C@@H](NC(=O)C(C)(C)NC(=O)[C@@H](NC(=O)[C@H](CC(=O)O)NC(=O)[C@H](CO)NC(=O)[C@@H](NC(=O)[C@](C)(Cc1ccccc1F)NC(=O)[C@@H](NC(=O)CNC(=O)[C@H](CCC(=O)O)NC(=O)C(C)(C)NC(=O)[C@@H](N)Cc1ccc(O)cc1)[C@@H](C)O)[C@@H](C)O)C(C)C)[C@@H](C)CC)C(=O)N[C@@H](C)C(=O)N[C@@H](CCC(N)=O)C(=O)NC(C)(C)C(=O)N[C@@H](CCC(=O)O)C(=O)N[C@@H](Cc1ccccc1)C(=O)N[C@H](C(=O)N[C@@H](CCCCNC(=O)COCCOCCNC(=O)CC[C@H](NC(=O)CCCCCCCCCCCCC(=O)O)C(=O)O)C(=O)N[C@@](C)(Cc1ccc(O)cc1)C(=O)N[C@@H](CC(C)C)C(=O)N[C@H](C(=O)N[C@@H](CCCCNC(=O)COCCOCCNC(=O)CC[C@H](NC(=O)CCCCCCCCCCCCC(=O)O)C(=O)O)C(=O)NCC(=O)NCC(=O)N1CCC[C@H]1C(=O)N[C@@H](CO)C(=O)N[C@@H](CO)C(=O)NCC(=O)N[C@@H](C)C(=O)N1CCC[C@H]1C(=O)N1CCC[C@H]1C(=O)N1CCC[C@H]1C(=O)N[C@@H](CO)C(N)=O)[C@@H](C)CC)[C@@H](C)CC [Example 400] | 83.2 | 98.1 | 0.0821 | > 9950 | > 9950 | 109 | 0.708 | – | –
CC[C@H](C)[C@H](NC(=O)[C@H](CCCN)NC(=O)[C@H](CC(=O)O)NC(=O)[C@H](CC(C)C)NC(=O)[C@](C)(CC(C)C)NC(=O)[C@@H](NC(=O)C(C)(C)NC(=O)[C@H](Cc1ccncc1)NC(=O)[C@H](CC(=O)O)NC(=O)[C@H](CO)NC(=O)[C@@H](NC(=O)[C@](C)(Cc1ccccc1F)NC(=O)[C@@H](NC(=O)CNC(=O)[C@H](CCC(=O)O)NC(=O)C(C)(C)NC(=O)[C@@H](N)Cc1ccc(O)cc1)[C@@H](C)O)[C@@H](C)O)[C@@H](C)CC)C(=O)N[C@@H](C)C(=O)N[C@@H](CCC(N)=O)C(=O)NC(C)(C)C(=O)N[C@@H](CCCCNC(=O)COCCOCCNC(=O)CC[C@H](NC(=O)CCCCCCCCCCCCC(=O)O)C(=O)O)C(=O)N[C@@H](Cc1ccccc1)C(=O)N[C@H](C(=O)N[C@H](CCC(=O)O)C(=O)N[C@@](C)(Cc1ccc(O)cc1)C(=O)N[C@@H](CC(C)C)C(=O)N[C@H](C(=O)N[C@@H](CCC(=O)O)C(=O)NCC(=O)NCC(=O)N1CCC[C@H]1C(=O)N[C@@H](CO)C(=O)N[C@@H](CO)C(=O)NCC(=O)N[C@@H](C)C(=O)N1CCC[C@H]1C(=O)N1CCC[C@H]1C(=O)N1CCC[C@H]1C(=O)N[C@@H](CO)C(=O)N[C@@H](CCCCNC(=O)COCCOCCNC(=O)CC[C@H](NC(=O)CCCCCCCCCCCCC(=O)O)C(=O)O)C(N)=O)[C@@H](C)CC)[C@@H](C)CC [Example 341] (H-Y[Aib]EGT[αMePhe(2-F)]TSD[4Pal][Aib]I[αMeL]LD[Orn]IAQ[Aib]K([AEEA-γGlu-C14 diacid])FI[dE][αMeY]LIEGGPSSGAPPPSK([AEEA-γGlu-C14 diacid])-NH2) | 83.6 | 91.4 | 0.0127 | > 9950 | > 9950 | 113 | 0.329 | – | –
CC[C@H](C)[C@H](NC(=O)[C@H](CC(C)C)NC(=O)[C@](C)(Cc1ccc(O)cc1)NC(=O)[C@@H](CCC(=O)O)NC(=O)[C@@H](NC(=O)[C@H](Cc1ccccc1)NC(=O)[C@H](CCCN)NC(=O)C(C)(C)NC(=O)[C@H](CCC(N)=O)NC(=O)[C@H](C)NC(=O)[C@H](CCCCNC(=O)COCCOCCNC(=O)COCCOCCNC(=O)CC[C@H](NC(=O)CCCCCCCCCCCCC(=O)O)C(=O)O)NC(=O)[C@H](CCCN)NC(=O)[C@H](CC(=O)O)NC(=O)[C@H](CC(C)C)NC(=O)[C@](C)(CC(C)C)NC(=O)[C@@H](NC(=O)C(C)(C)NC(=O)[C@H](Cc1ccncc1)NC(=O)[C@H](CC(=O)O)NC(=O)[C@H](CO)NC(=O)[C@@H](NC(=O)[C@](C)(Cc1ccccc1F)NC(=O)[C@@H](NC(=O)CNC(=O)[C@H](CCC(=O)O)NC(=O)C(C)(C)NC(=O)[C@@H](N)Cc1ccc(O)cc1)[C@@H](C)O)[C@@H](C)O)[C@@H](C)CC)[C@@H](C)CC)C(=O)N[C@@H](CCCCNC(=O)COCCOCCNC(=O)COCCOCCNC(=O)CC[C@H](NC(=O)CCCCCCCCCCCCC(=O)O)C(=O)O)C(=O)NCC(=O)NCC(=O)N1CCC[C@H]1C(=O)N[C@@H](CO)C(=O)N[C@@H](CO)C(=O)NCC(=O)N[C@@H](C)C(=O)N1CCC[C@H]1C(=O)N1CCC[C@H]1C(=O)N1CCC[C@H]1C(=O)N[C@@H](CO)C(N)=O [Example 348] | 79.3 | 95.9 | 0.0228 | > 9950 | > 9950 | 98 | 0.805 | 8.95 | –
CC[C@H](C)[C@H](NC(=O)[C@H](CCCN)NC(=O)[C@H](CC(=O)O)NC(=O)[C@H](CC(C)C)NC(=O)[C@](C)(CC(C)C)NC(=O)[C@@H](NC(=O)C(C)(C)NC(=O)[C@H](Cc1ccc(O)cc1)NC(=O)[C@H](CC(=O)O)NC(=O)[C@H](CO)NC(=O)[C@@H](NC(=O)[C@](C)(Cc1ccccc1F)NC(=O)[C@@H](NC(=O)CNC(=O)[C@H](CCC(=O)O)NC(=O)C(C)(C)NC(=O)[C@@H](N)Cc1ccc(O)cc1)[C@@H](C)O)[C@@H](C)O)[C@@H](C)CC)C(=O)N[C@@H](C)C(=O)N[C@@H](CCC(N)=O)C(=O)NC(C)(C)C(=O)N[C@@H](CCCCNC(=O)COCCOCCNC(=O)CC[C@H](NC(=O)CCCCCCCCCCCCC(=O)O)C(=O)O)C(=O)N[C@@H](Cc1ccccc1)C(=O)N[C@H](C(=O)N[C@H](CCC(=O)O)C(=O)N[C@@](C)(Cc1ccc(O)cc1)C(=O)N[C@@H](CC(C)C)C(=O)N[C@H](C(=O)N[C@@H](CCCCNC(=O)COCCOCCNC(=O)CC[C@H](NC(=O)CCCCCCCCCCCCC(=O)O)C(=O)O)C(=O)NCC(=O)NCC(=O)N1CCC[C@H]1C(=O)N[C@@H](CO)C(=O)N[C@@H](CO)C(=O)NCC(=O)N[C@@H](C)C(=O)N1CCC[C@H]1C(=O)N1CCC[C@H]1C(=O)N1CCC[C@H]1C(=O)N[C@@H](CO)C(N)=O)[C@@H](C)CC)[C@@H](C)CC [Example 370] (H-Y[Aib]EGT[αMePhe(2-F)]TSDY[Aib]I[αMeL]LD[Orn]IAQ[Aib]K([AEEA-γGlu-C14 diacid])FI[dE][αMeY]LIK([AEEA-γGlu-C14 diacid])GGPSSGAPPPS-NH2) | – | 105 | 0.0282 | > 9950 | – | – | 0.402 | – | 112
